How the values were obtained:
microglial cells = assay: Subretinal adoptive transfer and clearance of CFSE-labeled microglial cells; type: in vivo, mouse; conditions: 24 h after subretinal transfer into wildtype mice, co-injected TSP1 10 μg/ml
Procedure: Microglial cells were prepared from PBS-perfused mice. After dissociation of brain or retina with Neural Dissociation Kit Papain (miltenyi Biotech), 70 μm filtered cell suspensions were washed and resuspended in 75% isotonic Percoll (Percoll Plus, GE Healthcare), overlayed with 25% Percoll and PBS. Cells were centrifuged at 1000 g for 30 min at […]. The ring at the 75%/25% interface was collected, washed with PBS and centrifuged.
According to Levy et al., (EMBO Mol Med. 2015, 7:211-226), brain microglia of the indicated mouse strains were sorted as describe above, labeled in 10 μM CFSE (Life Technologies), washed and resuspended in PBS, 12000 cells (4 μL) were injected using glass microcapillaries (Eppendorf) and a microinjector in the subretinal space of anesthetized 10-14 weeks old wildtype mice. A hole was pierced with the glass capillary prior to the subretinal injection to avoid intra-ocular pressure increase and to allow retinal detachment with 4 μL of solution. The subretinal injection was verified by fundoscopy. In specific experiments, cells were co-injected with recombinant human TSP1 (10 μg/ml, R&D Systems), Eyes were enucleated after 24 hours, fixed in PFA 4% 30 minutes and labeled with DAPI. Eyes with hemorrhages were discarded. CFSE+cells in the subretinal space were quantified on flatmounts on the RPE side of the retina and on the apical side of the RPE.

subretinal IBA-1+ MPs = assay: Laser-injury model in Cx3cr1GFP/GFP mice; type: in vivo, mouse; conditions: 2 μl intravitreal at day 4 and day 7, day 10, vs PBS or 4NGG
Procedure: Laser-coagulations were performed with a 532 nm ophtalmological laser mounted on an operating microscope (Vitra Laser, 532 nm, 450 mW, 50 ms, and 250 μm): Intravitreal injections of 2 μl of HTRA1 and/or TSP1 were performed using glass capillaries (Eppendorf) and a micro injector. The 2 μl injection solution contained 50 μg/ml TSP1 and HTRA1, corresponding to an intraocular concentration of 5 μg/ml of each protein assuming their dilution by approximately 1/10th in the intra-ocular volume. […] A volume of 2 μl of a 100 μM solution of either PBS, recombinant TSP1 (10 μg/ml), the 4NGG control peptide or the CD47-activating peptide PKT16 (200 μM) was injected at day 4 (when MP infiltration is maximal) and day 7 after the injury and evaluated subretinal inflammation on flatmounted RPE/choroidal flatmounts at day 10.
Eyes were enucleated, fixed in 4% PFA 30 minutes and sectioned at the limbus; the cornea and lens were discarded. […] Choroids and retinas were flatmounted and viewed with a fluorescence microscope DM5500B (Leica). IBA-1+ cells were counted on whole RPE/choroidal flatmounts and on the outer segment side of the retina. […]

HTRA1 = molecular target: T1, HTRA1 (Homo sapiens, UniProt Q92743); assay: Co-incubation of recombinant TSP1 or TSP2 with recombinant HTRA1 (Coomassie staining, Western blot); type: biochemical; conditions: co-incubation at 37° C. for 24 h, Coomassie gel
T1 construct: purchased R & D
Procedure: WB analysis was performed using a monoclonal anti-TSP1 antibody (Abeam), as previously described (Houssier et al., PLoS Med. 2008, 5:e39). RT-PCRs primers were ordered from Taqman, reference: Hs01016151_m1.
Western blot analysis of the proteins confirmed the disappearance of the whole sized TSP1 and the appearance of several smaller bands in the co-incubated condition (FIG. 3A). […] Next the functionality of rTSP1 and HTRA1-digested TSP1 was analyzed in laser-induced subretinal inflammation in vivo. […] Accordingly, associated choroidal neovascularization, measured as the surface covered by CD102^−CNV on choroidal flatmounts at d7, underwent the same differences (FIG. 3D).

T1 sequence (Q92743 23-480): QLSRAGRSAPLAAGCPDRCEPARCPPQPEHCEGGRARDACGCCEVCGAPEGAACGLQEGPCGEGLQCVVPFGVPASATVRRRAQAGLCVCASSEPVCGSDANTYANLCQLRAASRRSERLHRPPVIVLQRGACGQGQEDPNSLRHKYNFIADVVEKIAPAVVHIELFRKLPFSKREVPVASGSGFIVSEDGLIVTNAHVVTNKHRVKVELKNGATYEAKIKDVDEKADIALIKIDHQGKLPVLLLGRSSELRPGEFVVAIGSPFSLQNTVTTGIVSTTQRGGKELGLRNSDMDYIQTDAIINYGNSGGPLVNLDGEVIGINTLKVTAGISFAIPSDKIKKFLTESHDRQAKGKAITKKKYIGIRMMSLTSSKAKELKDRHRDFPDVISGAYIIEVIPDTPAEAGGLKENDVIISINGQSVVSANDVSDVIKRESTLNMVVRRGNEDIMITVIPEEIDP

degradation by recombinant HTRA1 (HTRA1): degrades
Substance: recombinant TSP1: recombinant human TSP1 (R&D Systems), natural ligand and agonist of CD47
elimination of Cd47-/- microglial cells (microglial cells; CFSE+ Cd47-/- microglial cells): no effect
elimination of Tsp1-/- microglial cells (microglial cells; CFSE+ Tsp1-/- microglial cells): reversed the phenotype
elimination of wildtype microglial cells (microglial cells; CFSE+ wildtype microglial cells): very significantly accelerated the elimination
elimination of subretinal IBA-1+ MPs adjacent to the laser impact (subretinal IBA-1+ MPs): eliminated significantly more efficiently
